Measured values: patent publication US20150258059A1, “ANTIMICROBIAL AND RADIOPROTECTIVE COMPOUNDS” (BioDiem, Ltd, priority 2001, published 2015)

System: Enterobacter aerogenes B-687
Experiment: Sensitivity of strains: suppression of growth
Assay type: cell-based
Settings: Compound (1) 1.0%; antibiotics disc method

| SMILES | Suppression of Growth (+/−) |
| --- | --- |
| CC1(C)S[C@@H]2[C@H](NC(=O)[C@H](N)c3ccccc3)C(=O)N2[C@H]1C(=O)O [Antibiotic 2, ampicillin] | − |

System: Escherichia coli M-17
Experiment: Sensitivity of strains: suppression of growth
Assay type: cell-based
Settings: Compound (1) 1.0%; antibiotics disc method

| SMILES | Suppression of Growth (+/−) |
| --- | --- |
| CC1(C)S[C@@H]2[C@H](NC(=O)[C@H](N)c3ccccc3)C(=O)N2[C@H]1C(=O)O [Antibiotic 2, ampicillin] | + |

System: Klebsiella pneumoniae M-248
Experiment: Sensitivity of strains: suppression of growth
Assay type: cell-based
Settings: Compound (1) 1.0%; antibiotics disc method

| SMILES | Suppression of Growth (+/−) |
| --- | --- |
| CC1(C)S[C@@H]2[C@H](NC(=O)[C@H](N)c3ccccc3)C(=O)N2[C@H]1C(=O)O [Antibiotic 2, ampicillin] | − |

System: Bacillus sp. B-575
Experiment: Sensitivity of strains: suppression of growth
Assay type: cell-based
Settings: not given

| SMILES | Suppression of Growth (+/−) |
| --- | --- |
| CC1(C)S[C@@H]2[C@H](NC(=O)[C@H](N)c3ccccc3)C(=O)N2[C@H]1C(=O)O [Antibiotic 2, ampicillin] | − |

System: γ-hemolytic streptococcus B-672
Experiment: Sensitivity of strains: suppression of growth
Assay type: cell-based
Settings: Compound (1) 1.0%; antibiotics disc method

| SMILES | Suppression of Growth (+/−) |
| --- | --- |
| CC1(C)S[C@@H]2[C@H](NC(=O)[C@H](N)c3ccccc3)C(=O)N2[C@H]1C(=O)O [Antibiotic 2, ampicillin] | + |

System: Acinetobacter B-676
Experiment: Sensitivity of strains: suppression of growth
Assay type: cell-based
Settings: Compound (1) 1.0%; antibiotics disc method

| SMILES | Suppression of Growth (+/−) |
| --- | --- |
| CC1(C)S[C@@H]2[C@H](NC(=O)[C@H](N)c3ccccc3)C(=O)N2[C@H]1C(=O)O [Antibiotic 2, ampicillin] | − |

System: Citrobacter diversus B-678
Experiment: Sensitivity of strains: suppression of growth
Assay type: cell-based
Settings: Compound (1) 1.0%; antibiotics disc method

| SMILES | Suppression of Growth (+/−) |
| --- | --- |
| CC1(C)S[C@@H]2[C@H](NC(=O)[C@H](N)c3ccccc3)C(=O)N2[C@H]1C(=O)O [Antibiotic 2, ampicillin] | + |

System: Acinetobacter B-677
Experiment: Sensitivity of strains: suppression of growth
Assay type: cell-based
Settings: Compound (1) 1.0%; antibiotics disc method

| SMILES | Suppression of Growth (+/−) |
| --- | --- |
| CC1(C)S[C@@H]2[C@H](NC(=O)[C@H](N)c3ccccc3)C(=O)N2[C@H]1C(=O)O [Antibiotic 2, ampicillin] | − |

System: Staphylococci epidermidis D-513
Experiment: Sensitivity of strains: suppression of growth
Assay type: cell-based
Settings: Compound (1) 1.0%; antibiotics disc method

| SMILES | Suppression of Growth (+/−) |
| --- | --- |
| CC1(C)S[C@@H]2[C@H](NC(=O)[C@H](N)c3ccccc3)C(=O)N2[C@H]1C(=O)O [Antibiotic 2, ampicillin] | + |

System: Salmonella typhimurium M-727
Experiment: Sensitivity of strains: suppression of growth
Assay type: cell-based
Settings: Compound (1) 1.0%; antibiotics disc method

| SMILES | Suppression of Growth (+/−) |
| --- | --- |
| CC1(C)S[C@@H]2[C@H](NC(=O)[C@H](N)c3ccccc3)C(=O)N2[C@H]1C(=O)O [Antibiotic 2, ampicillin] | − |

System: Enterobacter aerogenes B-679
Experiment: Sensitivity of strains: suppression of growth
Assay type: cell-based
Settings: Compound (1) 1.0%; antibiotics disc method

| SMILES | Suppression of Growth (+/−) |
| --- | --- |
| CC1(C)S[C@@H]2[C@H](NC(=O)[C@H](N)c3ccccc3)C(=O)N2[C@H]1C(=O)O [Antibiotic 2, ampicillin] | − |

System: Staphylococcus aureus M-12159
Experiment: Sensitivity of strains: suppression of growth
Assay type: cell-based
Settings: Compound (1) 1.0%; antibiotics disc method

| SMILES | Suppression of Growth (+/−) |
| --- | --- |
| CC1(C)S[C@@H]2[C@H](NC(=O)[C@H](N)c3ccccc3)C(=O)N2[C@H]1C(=O)O [Antibiotic 2, ampicillin] | − |

System: Staphylococcus aureus M-209
Experiment: Sensitivity of strains: suppression of growth
Assay type: cell-based
Settings: Compound (1) 1.0%; antibiotics disc method

| SMILES | Suppression of Growth (+/−) |
| --- | --- |
| CC1(C)S[C@@H]2[C@H](NC(=O)[C@H](N)c3ccccc3)C(=O)N2[C@H]1C(=O)O [Antibiotic 2, ampicillin] | − |

System: Neisseria meningitidis M-6231
Experiment: Sensitivity of strains: suppression of growth
Assay type: cell-based
Settings: Compound (1) 1.0%; antibiotics disc method

| SMILES | Suppression of Growth (+/−) |
| --- | --- |
| CC1(C)S[C@@H]2[C@H](NC(=O)[C@H](N)c3ccccc3)C(=O)N2[C@H]1C(=O)O [Antibiotic 2, ampicillin] | − |

System: Alkaligenes sp. B-667
Experiment: Sensitivity of strains: suppression of growth
Assay type: cell-based
Settings: Compound (1) 1.0%; antibiotics disc method

| SMILES | Suppression of Growth (+/−) |
| --- | --- |
| CC1(C)S[C@@H]2[C@H](NC(=O)[C@H](N)c3ccccc3)C(=O)N2[C@H]1C(=O)O [Antibiotic 2, ampicillin] | − |

System: Conditional pathogenic enterobacteria gram-negative aerobic bacilli; also: key: + sensitive strains; + moderately sensitive strains; − stable strains
Experiment: not given
Assay type: cell-based
Settings: not given

| SMILES | Suppression of Growth (+/−) |
| --- | --- |
| CC1(C)S[C@@H]2[C@H](NC(=O)[C@H](N)c3ccccc3)C(=O)N2[C@H]1C(=O)O [Antibiotic 2, ampicillin] | − |

System: β-hemolytic streptococcus B-624
Experiment: Sensitivity of strains: suppression of growth
Assay type: cell-based
Settings: Compound (1) 1.0%; antibiotics disc method

| SMILES | Suppression of Growth (+/−) |
| --- | --- |
| CC1(C)S[C@@H]2[C@H](NC(=O)[C@H](N)c3ccccc3)C(=O)N2[C@H]1C(=O)O [Antibiotic 2, ampicillin] | + |

System: Alkaligenes sp. B-689
Experiment: Sensitivity of strains: suppression of growth
Assay type: cell-based
Settings: Compound (1) 1.0%; antibiotics disc method

| SMILES | Suppression of Growth (+/−) |
| --- | --- |
| CC1(C)S[C@@H]2[C@H](NC(=O)[C@H](N)c3ccccc3)C(=O)N2[C@H]1C(=O)O [Antibiotic 2, ampicillin] | − |

System: Escherichia coli B-65
Experiment: Sensitivity of strains: suppression of growth
Assay type: cell-based
Settings: Compound (1) 1.0%; antibiotics disc method

| SMILES | Suppression of Growth (+/−) |
| --- | --- |
| CC1(C)S[C@@H]2[C@H](NC(=O)[C@H](N)c3ccccc3)C(=O)N2[C@H]1C(=O)O [Antibiotic 2, ampicillin] | + |

System: Neisseria meningitidis M-A72
Experiment: Sensitivity of strains: suppression of growth
Assay type: cell-based
Settings: Compound (1) 1.0%; antibiotics disc method

| SMILES | Suppression of Growth (+/−) |
| --- | --- |
| CC1(C)S[C@@H]2[C@H](NC(=O)[C@H](N)c3ccccc3)C(=O)N2[C@H]1C(=O)O [Antibiotic 2, ampicillin] | − |

System: Pseudomonas aeruginosa B-601
Experiment: Sensitivity of strains: suppression of growth
Assay type: cell-based
Settings: Compound (1) 1.0%; antibiotics disc method

| SMILES | Suppression of Growth (+/−) |
| --- | --- |
| CC1(C)S[C@@H]2[C@H](NC(=O)[C@H](N)c3ccccc3)C(=O)N2[C@H]1C(=O)O [Antibiotic 2, ampicillin] | + |

System: Yersinia pseudotuberculosis
Experiment: not given
Assay type: cell-based
Settings: Compound (1) 1.0%; antibiotics disc method

| SMILES | Suppression of Growth (+/−) |
| --- | --- |
| CC1(C)S[C@@H]2[C@H](NC(=O)[C@H](N)c3ccccc3)C(=O)N2[C@H]1C(=O)O [Antibiotic 2, ampicillin] | − |

System: Staphylococcus aureus B-674
Experiment: Sensitivity of strains: suppression of growth
Assay type: cell-based
Settings: Compound (1) 1.0%; antibiotics disc method

| SMILES | Suppression of Growth (+/−) |
| --- | --- |
| CC1(C)S[C@@H]2[C@H](NC(=O)[C@H](N)c3ccccc3)C(=O)N2[C@H]1C(=O)O [Antibiotic 2, ampicillin] | − |

System: Acinetobacter B-681
Experiment: Sensitivity of strains: suppression of growth
Assay type: cell-based
Settings: Compound (1) 1.0%; antibiotics disc method

| SMILES | Suppression of Growth (+/−) |
| --- | --- |
| CC1(C)S[C@@H]2[C@H](NC(=O)[C@H](N)c3ccccc3)C(=O)N2[C@H]1C(=O)O [Antibiotic 2, ampicillin] | − |

System: Klebsiella pneumoniae M-A21
Experiment: Sensitivity of strains: suppression of growth
Assay type: cell-based
Settings: Compound (1) 1.0%; antibiotics disc method

| SMILES | Suppression of Growth (+/−) |
| --- | --- |
| CC1(C)S[C@@H]2[C@H](NC(=O)[C@H](N)c3ccccc3)C(=O)N2[C@H]1C(=O)O [Antibiotic 2, ampicillin] | − |

System: Staphylococcus aureus B-685
Experiment: Sensitivity of strains: suppression of growth
Assay type: cell-based
Settings: Compound (1) 1.0%; antibiotics disc method

| SMILES | Suppression of Growth (+/−) |
| --- | --- |
| CC1(C)S[C@@H]2[C@H](NC(=O)[C@H](N)c3ccccc3)C(=O)N2[C@H]1C(=O)O [Antibiotic 2, ampicillin] | − |

System: Staphylococcus epidermidis BK-30
Experiment: Sensitivity of strains: suppression of growth
Assay type: cell-based
Settings: Compound (1) 1.0%; antibiotics disc method

| SMILES | Suppression of Growth (+/−) |
| --- | --- |
| CC1(C)S[C@@H]2[C@H](NC(=O)[C@H](N)c3ccccc3)C(=O)N2[C@H]1C(=O)O [Antibiotic 2, ampicillin] | + |

System: Escherichia coli B-683
Experiment: Sensitivity of strains: suppression of growth
Assay type: cell-based
Settings: Compound (1) 1.0%; antibiotics disc method

| SMILES | Suppression of Growth (+/−) |
| --- | --- |
| CC1(C)S[C@@H]2[C@H](NC(=O)[C@H](N)c3ccccc3)C(=O)N2[C@H]1C(=O)O [Antibiotic 2, ampicillin] | + |
